pEC50: −log10 of the molar value.
Columns and labels:
Format in all cases: cell-based
EDG-1 = EDG-1 (Homo sapiens, UniProt P21453); assay: Calcium microfluorimetry (fura-2) in 293-EBNA cells, EDG-1; settings: 2 and 10 μM, preliminary data
Experimental: Transfections were carried out with EDG receptors in 293-EBNA cells as described above, except that no reporter gene vector was included in the DNA mix. Two days after transfection, cells were harvested by trypsinization and plated at a density of 200,000 cells onto poly-D-lysine-coated coverslips in 100 μl of medium containing 0.5% FBS. After briefly allowing cell attachment to take place, 2 ml of medium without FBS was added and the cells were incubated overnight. The next day, cells were loaded with 5 μM fura-2 AM ester (Molecular Probes) for 60 min at RT, then washed and used for calcium microfluorimetry. […] Treatments were applied using a gravity-fed perfusion apparatus. Fluorescence emission was continuously monitored and recorded with PTI 2.060a software and analyzed with Sigma Plot software. Intracellular calcium concentrations were calculated by interpolation on a ratiometric fluorescence curve generated from fura-2 fluorescence in a calcium dilution series.

human EDG-4 [1] = target: T1, human EDG-4 (Homo sapiens, UniProt O95136); assay: NF-κB luciferase reporter in 293-EBNA cells, human EDG-4; settings: human EDG-4 (pC3-hedg4#36); 3 μM; 6 hours
Experimental: Transient Transfection Protocol for 293-EBNA (Assay 3): The protocol described in Example 11 for Assay 1 was followed except for the following changes: […] 3) 30 μl Lipofectamine Reagent (Lipofectamine Plus Kit) was diluted in 750 μl DMEM/F12. The diluted Lipofectamine was then combined with the DNA/Plus mixture and incubated at room temperature for 15 min. […] 2) Transfected cells were harvested by trypsinization and 50,000 cells per well were plated in 96-well Blackview plates coated with poly D-lysine (Becton Dickinson Labware, Cat. 40640). No cells were plated in the outside wells of the 96-well plate. […] 1) Media was removed and cells treated with compounds diluted in DMEM/F12 media. The following treatments were used for all transfections: […] 2) The cells were treated for 6 hours. 3) Luciferase assay was performed.

EDG-7 = assay: NF-κB reporter, EDG-7
[2] = system: 293-EBNA cells transfected with empty expression vector pcDNA3; assay: NF-κB luciferase reporter in 293-EBNA cells, empty vector pcDNA3; settings: for NF-κB reporter response in control cells: pcDNA3-transfected 293-EBNA; for NF-κB reporter induction in control cells: pcDNA3, 3 μM, 6 hours, Assay #3
Experimental: Monolayer Transient Transfection Protocol for 293-EBNA
2) 6.6 μg NF-κB-tk-p4Luc reporter DNA and 6.6 μg of pC3-redg4 (expressing rat EDG-4), or pcDNA3 DNA was diluted in 500 μl OPTI-MEM (Gibco; Cat. 31985-062)
2) After 6 hrs, media was removed and cells treated with compounds diluted in 0.5% FBS media (140 μl added to each well).
3) Cells were treated for 24 hrs.
1) Luclite kit (Packard; Cat. 6016911) was used for luciferase assay. All reagents were brought to room temperature before use.
7) After incubation, plates were counted in a 12-detector Packard Top Count on a program without dark delay.
The above protocol for assay 1 was followed except for the following changes:
2) 3 μg NFκB-tk-p4Luc reporter DNA and 3 μg pC3-hedg1, pC3-hedg3, pC3-redg4, pC3-hedg5 or pcDNA3 DNA was diluted in 240 μl OPTI-MEM (Gibco; Cat. 31985-062)
(§1) 2) SRE Cotransfection: 0.5 μg of 2XSREtk-p4Luc-zeo reporter DNA and 3.5 μg pcDNA3, EDG-1, EDG-3 (pC3-hE3HP2, different from the clone used in Assay 2 of Example 11) or the newly cloned human EDG-4 (pC3-hedg4#36); NF-κB Cotransfection: 2 μg 6XNFκBtk-p4Luc-zeo reporter DNA and 2.0 μg pcDNA3, EDG-1, EDG-3 (pC3-hE3HP2), or EDG-4 (pC3-hedg4#36). Expression plasmid and reporter plasmid DNA samples were combined and diluted in 750 μl of DMEM/F12 (serum free media) and 20 μl Plus Reagent (Lipofectamine Plus Kit, Life Technologies Cat. 10964-013), and incubated at room temperature for 15 min.
(§2) 1) Media was removed and cells treated with compounds diluted in DMEM/F12 media.
(§3) 2) The cells were treated for 6 hours.
293-EBNA cells were grown, lipofected in monolayer cultures, and pretreated as described above for Example 11, assay #1, except that NF-κB and AP-1 reporter-transfected cells were pretreated for 6 hr in medium containing 0.5% FBS, then treated overnight in the same medium with or without 10 μM LPA.

human EDG-4 [3] = target: T1, human EDG-4; assay: SRE luciferase reporter in 293-EBNA cells, human EDG-4; settings: for Agonist character at EDG-4: conclusion from the reporter assay of Table 2; for Rank (EMax): rank of efficacy among compounds tested
Experimental: NE-κB activates gene expression by binding to specific DNA sequences found in the promoters of genes regulated by this inflammation-related transcription factor. […] The SRE reporter was identical to the NF-κB reporter, except that the NF-κB binding sites were replaced with 2 SRE sites. The new reporter was called 2XSREtk-p4Luc-zeo.
The protocol described in Example 11 for Assay 1 was followed except for the following changes:
as §1, §2, §3
3) Luciferase assay was performed.
Transfection was accomplished using the Lipofectamine Plus kit (Life Technologies, Cat. 10964-013), using the manufacturer's recommended conditions.
Transfection of EDG-4, expression, pretreatment and treatment of 293-EBNA cells expressing recombinant human EDG-4 was carried out essentially as described in “Example 11. […] Results were tabulated in Microsoft Excel, and analyzed with GraphPad Prism software. […] The luciferase response was expressed as fold response, after subtracting any endogenous response in pcDNA3-transfected cells at a given concentration of compound.

rat edg4 [4] = target: T2, rat edg4 (Rattus norvegicus, UniProt P47752); assay: NF-κB-tk-p4Luc luciferase reporter in 293-EBNA cells, rat EDG-4; design: expressed in transfected cells; host or cells: 293-EBNA
T2 sequence (P47752 whole entry): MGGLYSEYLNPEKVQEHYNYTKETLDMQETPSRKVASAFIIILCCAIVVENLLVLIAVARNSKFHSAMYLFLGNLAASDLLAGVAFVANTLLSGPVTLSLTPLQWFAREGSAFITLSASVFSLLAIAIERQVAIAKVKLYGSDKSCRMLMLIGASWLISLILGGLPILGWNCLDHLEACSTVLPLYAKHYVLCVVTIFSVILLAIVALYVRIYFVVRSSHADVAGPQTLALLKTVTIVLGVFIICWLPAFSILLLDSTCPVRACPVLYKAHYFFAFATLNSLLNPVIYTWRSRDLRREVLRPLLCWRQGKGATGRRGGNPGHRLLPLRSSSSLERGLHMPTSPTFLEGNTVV
Experimental: 1) 150 mm plates of 293-EBNA obtained from Invitrogen (Cat. R620-07) with a confluency of ˜80% were used for transfection.
3) 96.8 μl Lipofectamine (Gibco; Cat. 18324-020) was diluted in 500 μl of OPTI-MEM.
6) 6 ml OPTI-MEM was added to each transfection tube and this was added to a plate of 293-EBNA cells. The plates were left for 4 hrs at 37° C. in a 5% CO2 incubator.
2) 0.02×10^6 cells were plated per well of a 96-well Blackview plate coated with polyD-lysine. No cells were plated in the outside wells of the 96well plate. Two 96-well plates were seeded for each transfection.
1) Cells were washed with PBS and 140 μl serum-free media (SFM) added to each well. Plates were incubated in 37° C. incubator for 6 hrs.
3) 50 μl 0.5M HEPES pH 7.8 buffer (1 mM MgCl2, 1 mM CaCl2) was added to all wells of 96-well plate. Black adhesive backing (Polyfitronics) was aligned to the bottom of the viewplate.
4) Luclite substrate was made up by adding 10 ml substrate diluent to 1 vial lyophilized substrate. Reconstituted substrate was kept under a dark container. 50 μl substrate was added to each well.
1) 0.01×10^6 cells were plated per well of a 96-well Blackview plate coated with polyD-lysine. No cells were plated in the outside wells of the 96-well plate.

rat edg4 [5] = target: T2, rat edg4; assay: SRE luciferase reporter in 293-EBNA cells, rat EDG-4; design: expressed in transfected cells; host or cells: 293-EBNA; settings: 3 μM SPC, 6 hr
Experimental: Transfection was accomplished using the Lipofectamine Plus kit (Life Technologies, Cat. 10964-013), using the manufacturer's recommended conditions. Optimal SRE induction was seen when cells were seeded so as to become 100% confluent at the time of treatment, 72-96 hr after transfection.

[6] = Assay #2, S1P, SPC 3 μM, 20% FBS

Chain of EDG-1 (P21453 whole entry, the tested form may be a part): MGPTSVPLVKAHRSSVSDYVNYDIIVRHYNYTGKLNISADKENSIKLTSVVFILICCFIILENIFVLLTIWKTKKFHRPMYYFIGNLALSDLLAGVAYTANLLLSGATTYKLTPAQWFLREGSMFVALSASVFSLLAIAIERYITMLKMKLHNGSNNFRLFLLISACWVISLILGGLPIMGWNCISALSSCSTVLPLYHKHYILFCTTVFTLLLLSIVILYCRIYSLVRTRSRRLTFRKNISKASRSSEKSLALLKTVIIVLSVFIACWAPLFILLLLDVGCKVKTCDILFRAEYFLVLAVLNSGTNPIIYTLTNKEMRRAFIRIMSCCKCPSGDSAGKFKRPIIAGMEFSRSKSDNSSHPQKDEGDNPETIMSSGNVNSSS

SMILES	Qualitative calcium response (EDG-1)	Induction of the NF-κB reporter gene (human EDG-4 [1]) [fold]	NF-κB reporter signaling (EDG-7)	NF-κB reporter response in control cells ([2]; Assay #1)	NF-κB reporter response in control cells [2, 6]	NF-κB reporter induction in control cells [2]	Agonist character at EDG-4 (human EDG-4 [3])	Rank (EMax) (human EDG-4 [3])	Increase in luciferase activity (NF-κB reporter) (rat edg4 [4]; pC3-redg4, 1 μM, 24 hrs) [fold]	Increase in luciferase activity (NF-κB reporter) (rat edg4 [4]; pC3-redg4, 3 μM, Assay #2) [fold]	Increase in luciferase activity (NF-κB reporter) (rat edg4 [4]; pC3-redg4, 5 μM or 10 μM, 24 hrs)	pEC50 (human EDG-4 [3]; 293-EBNA expressing human EDG-4, luciferase after 6 hr, pcDNA3 response subtracted)	Induction of the SRE reporter gene (human EDG-4 [3]; pC3-hedg4#36, 3 μM SPC, 6 hr, Example 15A) [fold]	EMax (Percent) (human EDG-4 [3]; relative efficacy, 6 hr) [%]	PTX sensitivity of NF-κB reporter response (rat edg4 [4]; pC3-redg4, Assay #1)	NF-κB reporter induction (qualitative) (rat edg4 [4]; pC3-redg4, Assay #1, 24 hrs)	Induction of luciferase activity (SRE reporter) (rat edg4 [5]) [fold]
CCCCCCCCCCCCC/C=C/[C@@H](O)[C@@H](N)COP(=O)(O)O [S1P, sphingosine-1-phosphate]	None within 20 min	4.5	fail to signal through NF-κB reporters	No increase in luciferase activity	No response	No such induction	full agonists	2	2	3.5	4-4.5 fold						
CCCCCCCCCCCCC/C=C/[C@@H](O)[C@@H](N)COP(=O)([O-])OCC[N+](C)(C)C [SPC, sphingosylphosphorylcholine]		9			No response	No such induction	full agonists	1		4		6.06	26.3	100	PTX-sensitive	induced the reporter gene in EDG-4 expressing cells	35.6

— patent US6482609B1, “Isolated human EDG-4 receptor and polynucletide encoding said receptor” (priority 1997, dated 2002)
